Test: Water solubility
Type: physicochemical
Conditions: deionized water, pH 7, room temperature
Procedure: [drawing 6] 2,3-dihydroxyterephthalic acid dimethyl ester (12.89 g, 57 mmol) from step a) was suspended in N,N-dimethylethylenediamine (72.8 g, 809 mmol) and the reaction mixture was stirred for 24 hours at 100° C. After adding 100 ml of dimethylformamide (DMF), the excess of N,N-dimethylethylenediamine, together with the DMF, was removed by distillation. The solid obtained was washed 2 times using 300 ml of ethyl acetate, subsequently recrystallized from methanol/ethyl acetate (1:2.5) and dried in a vacuum. 9.6 g of 2,3-dihydroxy-N,N′-bis(2-(dimethylamino)ethyl)terephthaldiamide was obtained as a beige solid. The water solubility thereof (deionized water, pH 7, room temperature) was over 70 g/l.

- solubility: > 70 mg/mL
Structure (SMILES): CN(C)CCNC(=O)c1ccc(C(=O)NCCN(C)C)c(O)c1O [S1, 2,3-dihydroxy-N,N′-bis(2-(dimethylamino)ethyl) terephthaldiamide]

— patent US10876076B2, “Detergents and cleaning agents having improved performance” (Henkel AG & Co. KGaA, priority 2016, dated 2020)
